Assay results taken from patent US8507756B2, “Plant protection” (Plant Bioscience Limited, priority 2007, dated 2013).

Tests used:
[1] = test system: Tetranychus urticae (two-spotted spider mite); test: JA seed treatment, tomato plants challenged with two-spotted spider mite; type: in vivo; settings: tomato cv. Carousel
Experimental: (§1) Tomato, pepper, maize and wheat seeds were treated with 3 mM JA or 1.5 mM JA solutions or with 3 mM methyl jasmonate (MeJA) or with deionised water containing 42.8 mM ethanol (control) by full submersion of up to 40 seeds in a Petri dish of solution wrapped in foil for a period of 24 hours at 4° C. in a fridge. A temperature of 4° C. was used both to prevent degradation of the jasmonic acid solutions and to prevent germination of the seeds.
The seeds were then removed from the treatment solution and washed in 1 liter of deionised water for 5 minutes to remove the JA or MeJA coating the outside of the seeds.
Tomato seeds were sown in rockwool blocks and grown on peat-based compost in glass houses at 12° C.-28° C. under artificial light on a 16 hour light and 8 hour dark cycle for 48, 56 or 70 days.
Tomato plants were then challenged with Tetranychus urticae (two-spotted spider mite) which were allowed to feed for 9 days, Manduca sexta (tobacco hornworm) caterpillars which were allowed to feed for 4 days or Myzus persicae (aphid), which were allowed to feed for 10 or 12 days. In each case these organisms were restricted to the plant on which they had originally been placed. Pepper plants were challenged with Myzus persicae (aphid), which were allowed to feed for 2 weeks. Maize and wheat plants were challenged with Spodoptera exempta caterpillars which were allowed to feed for 2 days (maize) or 3 days (wheat).
The effect of Tetranychus urticae on plants was measured by means of counting the number of live and dead mites on each plant and the number of mite eggs present using a dissecting microscope.
Seeds of a UK commercial F1 hybrid tomato variety (cv. Carousel) were treated with either 1.5 or 3.0 mM jasmonic acid (JA) and 42.8 mM ethanol in deionised H2O for a period of 24 hours at 4° C. in the dark. Those seeds were then removed from solution and washed in deionised H2O only to remove the JA coating the outside of the seed. Those seed were then germinated in a commercial manner using rockwool blocks and were grown on under glasshouse conditions appropriate to this crop. Plants were challenged with two-spotted spider mite (Tetranychus urticae) 7 weeks after treatment a common crop pest, acting here as a “model herbivore”.

[2] = test system: Myzus persicae; test: JA seed treatment, sweet pepper plants challenged with aphids; type: in vivo; settings: sweet pepper cv Biscayne, seed treatment 1.5 mM JA
Experimental: Tomato, pepper, maize and wheat seeds were treated with 3 mM JA or 1.5 mM JA solutions or with 3 mM methyl jasmonate (MeJA) or with deionised water containing 42.8 mM ethanol (control) by full submersion of up to 40 seeds in a Petri dish of solution wrapped in foil for a period of 24 hours at 4° C. in a fridge. A temperature of 4° C. was used both to prevent degradation of the jasmonic acid solutions and to prevent germination of the seeds. Pepper seeds were sown in peat-based compost and grown in unheated glass houses under ambient conditions in the summer. Tomato plants were then challenged with Tetranychus urticae (two-spotted spider mite) which were allowed to feed for 9 days, Manduca sexta (tobacco hornworm) caterpillars which were allowed to feed for 4 days or Myzus persicae (aphid), which were allowed to feed for 10 or 12 days. In each case these organisms were restricted to the plant on which they had originally been placed. Pepper plants were challenged with Myzus persicae (aphid), which were allowed to feed for 2 weeks. […] The effect of Myzus persicae on plants was determined by counting the aphid population on each plant under a dissecting microscope at ×10 magnification. […] Aphids were allowed to feed on the plants for two weeks and the growth of the aphid population over this period was then measured. […]

[3] = test system: Spodoptera exempta; test: JA seed treatment, maize plants challenged with Spodoptera exempta caterpillars; type: in vivo; settings: maize cv. Earligold, seed treatment 1.5 mM JA, 2 days feeding
Experimental: as §1
Wheat and maize seeds were sown in peat-based compost and grown in unheated glass houses with supplementary lighting. (600 W SON-T lamps, for 16 hours per day) in the autumn.
Tomato plants were then challenged with Tetranychus urticae (two-spotted spider mite) which were allowed to feed for 9 days, Manduca sexta (tobacco hornworm) caterpillars which were allowed to feed for 4 days or Myzus persicae (aphid), which were allowed to feed for 10 or 12 days. […]
The effect of Manduca sexta or Spodoptera exempta on plants was determined by measurement of the leaf area eaten, measured using a leaf area meter.
Seeds of maize cv. […] Caterpillars were allowed to feed on the plants for 2 days and the area of grazed leaves was then measured. […] When expressed as the area of leaf consumed per unit weight of caterpillars the reduction in plants grown from seed treated with JA was even more pronounced (40%, p<0.001, FIG. 9). […]

[4] = test system: tomato (Solanum lycopersicum cv "Carousel") seeds; test: Effect of JA seed treatment on seed germination of tomato; type: in vivo
From the text: The illustrated data are means of 10 replicate populations+/−standard error of the mean, and the line is a fitted dose response.

[5] = test system: tomato (cv. Carousel); test: Long term growth and yield study after JA seed treatment, tomato; type: in vivo, Solanum lycopersicum
From the text: (§2) Data are means of 8 replicate plants+/−standard error of the mean, and the line is a fitted growth response.

[6] = test system: cucumber; test: Long term growth and yield study after JA seed treatment, cucumber; type: in vivo; settings: seed treatment 1.5 or 3.0 mM JA, weekly harvests
From the text: as §2

[7] = test system: pepper; test: Long term growth and yield study after JA seed treatment, pepper; type: in vivo; settings: seed treatment 1.5 or 3.0 mM JA, weekly harvests
From the text: as §2

[8] = Dissolution of JA in water when preparing the solution; type: physicochemical; settings: 250 mg JA; ethanol needed first
Experimental: 6. 1 ml of ethanol was added to the vial of JA using a 1000 μl Gilson pipette, the lid of the vial replaced and the vial shaken to dissolve the JA.

[9] = tomato cv. Carousel, JA seed treatment vs control, 8 replicate plants

- JA concentration that significantly reduced the final percentage germination ([4]; JA between 0.001 and 50 mM tested, germination 7 days after sowing): > 10 mM
- Final percentage germination ([4]; seed treatment 1.5 or 3.0 mM JA): no significant effects
- Delay of seed germination ([4]; seed treatment 1.5 or 3.0 mM JA, 24 hours at 4 C in the dark): delayed by approximately one day
- Fruit dry weight at each weekly harvest [5, 9]: no significant effects
- Number of fruit at each weekly harvest [5, 9]: no significant effects
- Plant height at each weekly harvest [5, 9]: no significant effects
- Vegetative or reproductive growth, or commercial yield ([5]; tomato, seed treatment 1.5 or 3.0 mM JA, weekly harvests): no significant effect
- Vegetative or reproductive growth, or commercial yield [6]: no significant effect
- Vegetative or reproductive growth, or commercial yield [7]: no significant effect
- Solubility in water [8]: will not dissolve in water directly
Structure (SMILES): CC/C=C\C[C@H]1C(=O)CC[C@@H]1CC(=O)O [JA, jasmonic acid]
- Observed resistance induced against spider mite ([1]; 8 weeks after application of the JA to the seeds): significant
- Visual damage caused by red spider mite attack (pale stippling of the leaf surface) ([1]; seed treatment 3.0 mM JA vs control, challenged 7 weeks after treatment): substantially reduced
- Reproductive rate of the mite measured by egg production (eggs per adult female) compared with control plants ([1]; seed treatment 1.5 or 3.0 mM JA, 10 replicates): significant reduction
- Population of two-spotted spider mite on the leaves (number of live mites) compared with control plants ([1]; seed treatment 1.5 or 3.0 mM JA, mites fed 9 days, 10 replicates): significant reduction
- Rate of aphid population growth compared with controls ([2]; challenged 8 weeks after seed treatment, 2 weeks feeding): significant (p<0.001) reduction
- Aphid population growth rate from fitted growth curves ([2]; control 0.19+/-0.011): 0.11+/−0.016
- Area of leaf consumed per unit weight of caterpillars, reduction vs controls ([3]; p<0.001): 40%
- Leaf area consumed by caterpillars, lower than controls ([3]; tassel stage approx. 10 weeks after seed treatment, p<0.05): 38%
